Source: patent US6642389B2, “Oxazole derivatives” (Hoffmann-La Roche Inc., priority 2001, dated 2003)

What was measured:
PPARγ [1] = molecular target: T1, PPARγ (Mus musculus, UniProt P37238); experiment: Luciferase transcriptional reporter gene assay, pFA-PPARγ-LBD in BHK21 cells; assay type: cell-based; conditions: Gal4-PPARγ-LBD
T1 construct: expressed in transfected cells; host or cells: BHK21 (ATCC CCL10)
T1 sequence (P37238 204-505): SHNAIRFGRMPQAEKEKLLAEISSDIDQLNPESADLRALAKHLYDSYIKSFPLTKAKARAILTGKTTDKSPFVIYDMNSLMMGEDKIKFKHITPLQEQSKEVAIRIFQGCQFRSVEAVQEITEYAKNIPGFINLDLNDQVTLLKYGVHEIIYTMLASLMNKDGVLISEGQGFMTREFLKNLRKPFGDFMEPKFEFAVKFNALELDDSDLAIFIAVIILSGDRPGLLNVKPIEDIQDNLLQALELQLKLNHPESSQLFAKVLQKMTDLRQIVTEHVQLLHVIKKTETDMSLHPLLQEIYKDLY
Text: (§1) Full-length cDNA clones for human PPARα and mouse PPARγ were obtained by RT-PCR from human adipose and mouse liver cRNA, respectively, cloned into plasmid vectors and verified by DNA sequencing. […] To accomplish this, the portions of the cloned sequences encoding the LBDs were amplified from the full-length clones by PCR and then subcloned into the plasmid vectors pGEX4T-2(Pharmacia) and pFA-CMV(Stratagene). Final clones were verified by DNA sequence analysis.
(§2) Baby hamster kidney cells (BHK21 ATCC CCL10) were grown in DMEM medium containing 10% FBS at 37° C. in a […]:5% CO2 atmosphere. Cells were seeded in 6 well plates at a density of 10^5 Cells/well and then batch-transfected with either the pFA-PPARγ-LBD or pFA-PPARα-LBD expression plasmids plus the pFR-luc reporter plasmid (Stratagene) and an expression plasmid encoding the secretable form of alkaline phosphatase (SEAP) as a normalization control. […] Six hours following transfection, the cells were harvested by trypsinization and seeded in 96 well plates at a density of 10^4 cells/well. After 24 hours to allow attachment of cells, the medium was removed and replaced with 100 ul of phenol red-free medium containing the test substances or control ligands (final. 0.1% DMSO). Following incubation of the cells for 24 hours with substances, 50 ul of the supernatant was recovered and analyzed for SEAP activity (Roche Molecular Biochemicals). The remainder of the supernatant was discarded, 50 ul PBS was added per well followed by one volume of Luciferase Constant-Light Reagent (Roche Molecular Biochemicals) to lyse the cells and initiate the luciferase reaction. Luminescence for both SEAP and luciferase was measured in a Packard TopCount. Luciferase activity was normalized to the SEAP control and transcriptional activation in the presence of a test substance was expressed as fold-activation over cells incubated in the absence of the substance. EC50 values were calculated using the XLfit program (ID Business Solutions Ltd. UK).

PPARα [2] = molecular target: T2, PPARα (Homo sapiens, UniProt Q07869); experiment: Luciferase transcriptional reporter gene assay, pFA-PPARα-LBD in BHK21 cells; assay type: cell-based; parameters: expressed in transfected cells; host or cells: BHK21 (ATCC CCL10); conditions: Gal4-PPARα-LBD
T2 sequence (Q07869 167-468 limits assumed): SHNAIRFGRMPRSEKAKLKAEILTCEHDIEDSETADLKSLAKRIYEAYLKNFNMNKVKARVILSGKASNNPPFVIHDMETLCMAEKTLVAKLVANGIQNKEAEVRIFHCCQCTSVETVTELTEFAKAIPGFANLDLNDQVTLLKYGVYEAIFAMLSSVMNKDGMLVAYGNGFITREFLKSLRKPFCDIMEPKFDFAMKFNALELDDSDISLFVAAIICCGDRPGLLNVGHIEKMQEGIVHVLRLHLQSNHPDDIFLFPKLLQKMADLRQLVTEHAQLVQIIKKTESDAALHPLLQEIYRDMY
Text: as §1, §2

PPARγ [3] = molecular target: T3, PPARγ (Mus musculus, UniProt P37238); experiment: Radioligand binding assay, PPARγ receptor binding (GST-PPARγ-LBD fusion protein, SPA); conditions: scintillation proximity
T3 construct: made in house; host or cells: E. coli BL21(pLysS)
T3 sequence (P37238 174-475 isoform P37238-2): T1 sequence (P37238 204-505)
Text: as §1
(§3) Induction, expression, and purification of GST-LBD fusion proteins were performed in E. coli strain BL21(pLysS) cells by standard methods (Ref: Current Protocols in Molecular Biology, Wiley Press, edited by Ausubel et al.).
PPARγ receptor binding was assayed in TKE50 (50 mM Tris-HCl, pH 8, 50 mM KCl, 2 mM EDTA, 0.1 mg/ml fatty acid-free BSA and 10 mM DTT). For each 96 well reaction an 140 ng equivalent of GST-PPARγ-LBD fusion protein was bound to 10 ug SPA beads (PharmaciaAmersham) in a final volume of 50 ul by shaking. The resulting slurry was incubated for 1 h at RT and centrifuged for 2 min at 1300 g. The supernatant containing unbound protein was removed and the semidry pellet containing the recptor-coated beads was resolved in 50 ul of TKE. For radioligand binding e.g. 10000 dpm 2(S)-(2-benzoyl-phenylamino)-3-{4-[1,1-ditritio-2-(5-methyl-2-phenyl-oxazol-4-yl)-ethoxy]-phenyl}-propionic acid in 50 ul were added, the reaction incubated at RT for 1 h and scintillation proximity counting performed. All binding assays were performed in 96 well plates and the amount of bound ligand measured on a Packard TopCount using OptiPlates (Packard). Nonspecific binding was determined in the presence of 10^−4 M unlabelled compound. Dose response curves were done in triplicates within a range of concentration from 10^−10 M to 10^−4 M.

PPARα [4] = molecular target: T2, PPARα; experiment: Radioligand binding assay, PPARα receptor binding (GST-PPARα-LBD fusion protein)
Text: as §1, §3
PPARα receptor binding was assayed in TKE10 (10 mM Tris-HCl, pH 8, 50 mM KCl, 2 mM EDTA, 0.1 mg/ml fatty acid free BSA and 10 mM DTT). […]
PPARγ receptor binding was assayed in TKE50 (50 mM Tris-HCl, pH 8, 50 mM KCl, 2 mM EDTA, 0.1 mg/ml fatty acid-free BSA and 10 mM DTT). […] All binding assays were performed in 96 well plates and the amount of bound ligand measured on a Packard TopCount using OptiPlates (Packard). Nonspecific binding was determined in the presence of 10^−4 M unlabelled compound. […]

Row | EC50 (PPARγ [1]) | EC50 (PPARα [2]) | IC50 (PPARγ [3]) | IC50 (PPARα [4]) | Compound | melting point
1 | 464 nM | 8 nM | 3170 nM |  | COC(Cc1ccc(OCCCc2nc(-c3ccc(Cl)cc3)oc2C)c2ccsc12)C(=O)O (racemic) [Example 48, [rac]-3-(4-{3-[2-(4-Chloro-phenyl)-5-methyl-oxazol-4-yl]-propoxy}-benzo[b]thiophen-7-yl)-2-methoxy-propionic acid] | 
2 | 501 nM | 138 nM | 112 nM | 259 nM | C/C(=C/C(=O)c1ccc(C(F)(F)F)cc1)NC(Cc1ccc(OCCc2nc(-c3ccccc3)oc2C)c2ccsc12)C(=O)O (racemic) [Example 106, [rac]-2-[1-Methyl-3-oxo-3-(4-trifluoromethyl-phenyl)-(Z)-propenylamino]-3-{4-[2-(5-methyl-2-phenyl-oxazol-4-yl)-ethoxy]-benzo[b]thiophen-7-yl}-propionic acid] | 
3 |  |  |  |  | CCCCOC(Cc1ccc(OCCc2nc(-c3ccccc3)oc2C)c2ccsc12)C(=O)O (stereo not shown) [Example 4, 2-Butoxy-3-{4-[2-(5-methyl-2-phenyl-oxazol-4-yl)-ethoxy]-benzo[b]thiophen-7-yl}-propionic acid] | 123 °C (dec.)
4 |  |  |  |  | CCCCOC(Cc1ccc(OCCc2nc(-c3ccccc3)oc2C)c2ccccc12)C(=O)O (stereo not shown) [Example 10, 2-Butoxy-3-{4-[2-(5-methyl-2-phenyl-oxazol-4-yl)-ethoxy]-naphthalen-1-yl}-propionic acid] | 88 to 90 °C (dec.)
5 | 188 nM | 746 nM | 25 nM | 109 nM | CCO/C(=C\c1ccc(OCCc2nc(-c3ccccc3)oc2C)c2ccoc12)C(=O)O [Example 83, 2Z-Ethoxy-3-{4-[2-(5-methyl-2-phenyl-oxazol-4-yl)-ethoxy]-benzofuran-7-yl}-acrylic acid] | 
